Data on twelve compounds can be found in patent US9278914B2, “SARMs and method of use thereof” (UNIVERSITY OF TENNESSEE RESEARCH FOUNDATION, priority 2004, dated 2016).

Some results are limits rather than exact numbers.

What all share (assay type): in vivo, rat
Assay [1] has as its system castrated male Sprague-Dawley rats. The assay is described as follows: Anabolic and androgenic activity of SARM panel in castrated male rats, sc 1 mg/d for 14 d. To be noted: 1 mg/d sc 14 d. How it is done: The in vivo pharmacological activity of each synthetic AR ligand (listed in Table 4, below) was examined in five male Sprague-Dawley rats weighing approximately 200 g. Animals were castrated via a scrotal incision under anesthesia 24 h before drug treatments and received daily sc injections of the compound of interest at a dose rate of 1 mg/d for 14 d. All compounds of interest were freshly dissolved in vehicle containing dimethylsulfoxide (5%, vol/vol) in polyethylene glycol 300 before dose administration. An additional two groups of animals with or without castration received vehicle only and served as castrated or intact control groups, respectively. Animals were killed at the end of the treatment. Plasma samples were collected and stored at −80° C. for future use. The ventral prostate, seminal vesicles, and levator ani muscle were removed, cleared of extraneous tissue, and weighed. All organ weights were normalized to body weight and compared. The weights of prostate and seminal vesicles were used to evaluate androgenic activity, whereas the levator ani muscle weight was used as a measure of anabolic activity. […] The results are graphically depicted in FIGS. 3 and 4.

In assay [2] the test system is intact male Sprague-Dawley rats. As to the kind of experiment: Anabolic and androgenic activity in intact male rats, daily oral gavage. How it is done: The test article for this study was weighed and dissolved in 10% DMSO (Fisher) diluted with PEG 300 (Acros Organics, N.J.) for preparation of the appropriate dosage concentrations. The animals were housed in groups of 2 to 3 animals per cage. Animals were randomly assigned to one of seven groups consisting of 4 to 5 animals per group. Control groups (intact and ORX) were administered vehicle daily. […] Where appropriate, animals were castrated on day one of the study. Treatment with compound of formula S-II began nine days post ORX and was administered daily via oral gavage for fourteen days.
(§1) The animals were sacrificed under anesthesia (ketamine/xyalzine, 87:13 mg/kg) and body weights were recorded. In addition, ventral prostate, seminal vesicles, and levator ani muscle were removed, individually weighed, normalized to body weight, and expressed as a percentage of intact control. Student's T-test was used to compare individual dose groups to the intact control group. Significance was defined a priori as a P-value<0.05. Ventral prostate and seminal vesicle weights were evaluated as a measure of androgenic activity, whereas levator ani muscle weight was evaluated as a measure of anabolic activity. Blood was collected from the abdominal aorta, centrifuged, and sera were frozen at −80° C. prior to determination of serum hormone levels. Serum luteinizing hormone (LH) and follicle stimulating hormone (FSH) concentrations were determined.
(§2) The test article for this study was weighed and dissolved in 10% DMSO (Fisher) diluted with PEG 300 (Acros Organics, N.J.) for preparation of the appropriate dosage concentrations. The animals were housed in groups of 2 to 3 animals per cage. Animals were randomly assigned to one of seven groups consisting of 4 to 5 animals per group. Control groups (intact and ORX) were administered vehicle daily. Compound of formula S-XXIII was administered via oral gavage at doses of 0.01, 0.03, 0.1, 0.3, 0.75, and 1 mg/day to both intact and ORX groups. Where appropriate, animals were castrated on day one of the study. Treatment with compound of formula S-XXIII began nine days post ORX and was administered daily via oral gavage for fourteen days.
as §2, with “S-XXIV” for “S-XXIII”, “study.” for “study. Treatment with compound of formula S-XXIII began nine days post ORX and was administered daily via oral gavage for fourteen days.”

Assay [3] relates to castrated (ORX) male Sprague-Dawley rats. The assay is described as follows: Anabolic and androgenic activity in castrated (ORX) male rats, daily oral gavage for fourteen days. To be noted: ORX rats. How it is done: Male Sprague-Dawley rats weighing approximately 200 g were purchased from Harlan Bioproducts for Science (Indianapolis, Ind.).
The test article for this study was weighed and dissolved in 10% DMSO (Fisher) diluted with PEG 300 (Acros Organics, N.J.) for preparation of the appropriate dosage concentrations. […] Animals were randomly assigned to one of seven groups consisting of 4 to 5 animals per group. Control groups (intact and ORX) were administered vehicle daily. […] Where appropriate, animals were castrated on day one of the study.
as §1, with “In” for “The animals were sacrificed under anesthesia (ketamine/xyalzine, 87:13 mg/kg) and body weights were recorded. In”
as §2, with “The animals were housed in groups of 2 to 3 animals per cage.” left out
Male Sprague-Dawley rats weighing approximately 200 g were purchased from Harlan Bioproducts for Science (Indianapolis, Ind.). […] Regenerative effects of the compound of formula S-XXIV in chronically (9 days) ORX rats was similarly evaluated.
as §2, with “The animals were housed in groups of 2 to 3 animals per cage.” left out, “S-XXIV” for “S-XXIII”
Male Sprague-Dawley rats weighing approximately 200 g were purchased from Harlan Bioproducts for Science (Indianapolis, Ind.). […] Anabolic and androgenic activity of compound of formula S-XXV in intact animals was evaluated, and the dose response in acutely orchidectomized (ORX) animals was evaluated as well.
The compound was weighed and dissolved in 10% DMSO (Fisher) diluted with PEG 300 (Acros Organics, N.J.) for preparation of the appropriate dosage concentrations.

The mark [4] stands for this setting: nonlinear regression, sigmoid Emax model.

In the case of `C[C@](O)(COc1ccc(F)cc1F)C(=O)Nc1ccc([N+](=O)[O-])c(C(F)(F)F)c1` [C-1], in assay [1], the Levator ani agonism is reported as > 75 % of intact control and the Ventral prostate weight is given as < 25 % of intact control.
On to `C[C@](O)(COc1ccc(F)c(F)c1)C(=O)Nc1ccc([N+](=O)[O-])c(C(F)(F)F)c1` [C-3], for which, in assay [1], the “Levator ani weight versus intact control” value is on record as “same as or in excess of intact control”.
For the compound `C[C@](O)(COc1ccc(F)c(Cl)c1)C(=O)Nc1ccc([N+](=O)[O-])c(C(F)(F)F)c1` [C-4], in assay [1], the Levator ani agonism is > 75 % of intact control and the Ventral prostate weight is < 25 % of intact control.
As to `C[C@](O)(COc1ccc(Cl)c(F)c1)C(=O)Nc1ccc([N+](=O)[O-])c(C(F)(F)F)c1` [C-6], the “Levator ani weight versus intact control” value in assay [1] is “same as or in excess of intact control”.
Same read-out and setting: in the case of `C[C@](O)(COc1ccc(Cl)cc1F)C(=O)Nc1ccc([N+](=O)[O-])c(C(F)(F)F)c1` [C-8] it was “same as or in excess of intact control”; in that of `C[C@](O)(COc1ccc(Cl)c(Cl)c1)C(=O)Nc1ccc([N+](=O)[O-])c(C(F)(F)F)c1` [C-10], “same as or in excess of intact control”; in that of `C[C@](O)(COc1ccc([N+](=O)[O-])c(F)c1)C(=O)Nc1ccc([N+](=O)[O-])c(C(F)(F)F)c1` [C-11], “same as or in excess of intact control”.
Same read-out and setting: in the case of `C[C@](O)(COc1cc(F)c(F)cc1F)C(=O)Nc1ccc([N+](=O)[O-])c(C(F)(F)F)c1` [C-18] it was “same as or in excess of intact control”.
In the case of `C[C@](O)(COc1cc(Cl)c(Cl)cc1Cl)C(=O)Nc1ccc([N+](=O)[O-])c(C(F)(F)F)c1` [C-22], in assay [1], the Levator ani agonism was > 75 % of intact control and the Ventral prostate weight is listed as < 25 % of intact control.
With `C[C@](O)(COc1c(F)c(F)c(F)c(F)c1F)C(=O)Nc1ccc([N+](=O)[O-])c(C(F)(F)F)c1` [C-23], in assay [1], the Levator ani agonism is > 75 % of intact control and the Ventral prostate weight was < 25 % of intact control.
As to `C[C@](O)(COc1ccc(F)cc1)C(=O)Nc1ccc([N+](=O)[O-])c(C(F)(F)F)c1` [S-1], in assay [1], the Levator ani agonism is > 75 % of intact control and the Ventral prostate weight was < 25 % of intact control.
Regarding `C[C@](O)(COc1ccc(C#N)cc1)C(=O)Nc1ccc(C#N)c(C(F)(F)F)c1` [S-XXV], the “Levator ani muscle weight” value is given as 120%±12% in assay [2] (0.01 mg/day oral); 116%±7% in assay [2] (0.03 mg/day oral); 128%±7% in assay [2] (0.1 mg/day oral); 134%±7% in assay [2] (0.3 mg/day oral); 125%±9% in assay [2] (0.75 mg/day oral); 146%±17% in assay [2] (1 mg/day oral). Further, the “Levator ani muscle weight” value is reported as 59%±6% in assay [3] (0.01 mg/day oral); 85%±9% in assay [3] (0.03 mg/day oral); 112%±10% in assay [3] (0.1 mg/day oral); 122%±16% in assay [3] (0.3 mg/day oral); 127±12 % of intact controls in assay [3] (0.75 mg/day oral); 129.66±2 % of intact controls in assay [3] (1 mg/day oral). The Prostate weight in assay [2] (0.01 mg/day oral) is on record as 111%±21%; in assay [2] (0.03 mg/day oral) it was 88%±15%; in assay [2] (0.1 mg/day oral), 77%±17%; in assay [2] (0.3 mg/day oral), 71%±16%; in assay [2] (0.75 mg/day oral), 71%±10%; in assay [2] (1 mg/day oral), 87%±13%. The Prostate weight in assay [3] (0.01 mg/day oral) is recorded as 8%±2%; in assay [3] (0.03 mg/day oral), 20%±5%; in assay [3] (0.1 mg/day oral), 51%±19%; in assay [3] (0.3 mg/day oral), 56%±9%; in assay [3] (0.75 mg/day oral), 80%±28%; in assay [3] (1 mg/day oral), 74±12.5 % of intact controls. Also, the Seminal vesicle weight in assay [2] (0.01 mg/day oral) is 94%±9%; in assay [2] (0.03 mg/day oral), 77%±11%; in assay [2] (0.1 mg/day oral), 80%±9%; in assay [2] (0.3 mg/day oral), 73%±12%; in assay [2] (0.75 mg/day oral) it was 77%±10%; in assay [2] (1 mg/day oral), 88%±14%. Also, the Seminal vesicle weight in assay [3] (0.01 mg/day oral) is 12%±4%; in assay [3] (0.03 mg/day oral) it was 17%±5%; in assay [3] (0.1 mg/day oral) it was 35%±10%; in assay [3] (0.3 mg/day oral) it was 61%±15%; in assay [3] (0.75 mg/day oral), 70%±14%; in assay [3] (1 mg/day oral) it was 80%±6%. For the same compound, in assay [3], the “Dose able to fully restore/maintain levator ani muscle weight” value was above 0.1 mg/day. For the same compound, the ED50 levator ani in assay [3] is 0.02 ± 0.01 mg/day. The same compound came in with an ED50 prostate in assay [3] of 0.09 ± 0.07 mg/day. The compound further registered an ED50 seminal vesicles in assay [3] of 0.17 ± 0.05 mg/day. The Emax levator ani in assay [3] (setting [4]) was 131%±2%. In addition, the Emax prostate in assay [3] (setting [4]) is 83%±25%. The Emax seminal vesicles in assay [3] (setting [4]) is 85%±11%.
